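Exposure lasted 48 hours, with cells grown in 96-well plates and compounds tested at five concentrations. Here, GI50 denotes the concentration required for 50% inhibition of growth.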 The source made the active and inactive calls. Cut-off read from the data, not from the text of the source: active = GI50 up to about 1.1 µM and inactive = higher.
What was measured:
Assay in all cases: growth of human tumour cells (NCI), 48 h
[1] = test system: RXF 393
[2] = test system: MCF7
[3] = test system: T47D
[4] = test system: KM12
[5] = test system: HCT-15
[6] = test system: SK-MEL-2
[7] = test system: HOP-62
[8] = test system: SN12C
[9] = test system: NCI-H522
[10] = test system: BT-549
[11] = test system: MDA-N
[12] = test system: Malme-3M
[13] = test system: COLO 205
[14] = test system: PC-3
[15] = test system: SK-MEL-5
[16] = test system: MDA-MB-231
[17] = test system: HOP-92
[18] = test system: OVCAR-8
[19] = test system: UACC-257
[20] = test system: SW-620
[21] = test system: U-251
[22] = test system: TK-10
[23] = test system: OVCAR-5
[24] = test system: SF-295
[25] = test system: HCC 2998
[26] = test system: RPMI-8226
[27] = test system: CCRF-CEM
[28] = test system: UO-31
[29] = test system: OVCAR-3
[30] = test system: NCI-H226
[31] = test system: NCI-H23
[32] = test system: M14
[33] = test system: HT-29
[34] = test system: SF-268
[35] = test system: SR
[36] = test system: DU-145
[37] = test system: HCT-116
[38] = test system: NCI-H460
[39] = test system: SK-MEL-28
[40] = test system: K562
[41] = test system: OVCAR-4
[42] = test system: IGROV-1
[43] = test system: SK-OV-3
[44] = test system: A549
[45] = test system: SNB-19
[46] = test system: HL-60
[47] = test system: SNB-75
[48] = test system: A498
[49] = test system: Hs-578T
[50] = test system: SF-539
[51] = test system: ACHN
[52] = test system: NCI/ADR-RES
[53] = test system: 786-0
[54] = test system: UACC-62
[55] = test system: MDA-MB-435
[56] = test system: EKVX
[57] = test system: MOLT-4
[58] = test system: CAKI-1
[59] = test system: LOX IMVI

In the case of C=C(Br)C(C)(Br)CCC(Br)C(C)(C)Cl (centres undefined), the GI50 [1] is reported as 20 µM (inactive), the GI50 [2] is reported as 14.5 µM (inactive) and the GI50 [3] is reported as 20.5 µM (inactive). The GI50 [4] was 16.6 µM (inactive), the GI50 [5] was 13 µM and the GI50 [6] was 25.7 µM (inactive). The GI50 [7] was 23 µM (inactive), the GI50 [8] was 20.2 µM (inactive) and the GI50 [9] was 6.62 µM (inactive). For the same molecule, the GI50 [10] was 23.8 µM (inactive), the GI50 [11] was 19.2 µM (inactive) and the GI50 [12] was 20.1 µM (inactive). For the same molecule, the GI50 [13] was 18.5 µM (inactive), the GI50 [14] was 20.4 µM (inactive) and the GI50 [15] was 17.2 µM (inactive). For the same molecule, the GI50 [16] was 17.8 µM (inactive), the GI50 [17] was 14.6 µM (inactive) and the GI50 [18] was 17.8 µM (inactive). For the same molecule, the GI50 [19] was 19.1 µM (inactive), the GI50 [20] was 13 µM (inactive) and the GI50 [21] was 16.2 µM (inactive). The GI50 [22] was 18.2 µM (inactive), the GI50 [23] was 18.8 µM (inactive) and the GI50 [24] was 16.9 µM (inactive). For the same molecule, the GI50 [25] was 17.4 µM (inactive), the GI50 [26] was 15.4 µM (inactive) and the GI50 [27] was 2.96 µM (inactive). For the same molecule, the GI50 [28] was 17.7 µM (inactive), the GI50 [29] was 18.6 µM (inactive) and the GI50 [30] was 31 µM (inactive). For the same molecule, the GI50 [31] was 16.3 µM (inactive), the GI50 [32] was 17.3 µM (inactive) and the GI50 [33] was 17.9 µM (inactive). For the same molecule, the GI50 [34] was 17.9 µM (inactive), the GI50 [35] was 3.5 µM (inactive) and the GI50 [36] was 21.5 µM (inactive). The GI50 [37] was 11.7 µM (inactive), the GI50 [38] was 18.3 µM (inactive) and the GI50 [39] was 16.3 µM (inactive). The GI50 [40] was 10.2 µM (inactive), the GI50 [41] was 18.9 µM (inactive) and the GI50 [42] was 13.6 µM (inactive). The GI50 [43] was 27.8 µM (inactive), the GI50 [44] was > 54.7 µM (inactive) and the GI50 [45] was 18.8 µM (inactive). For the same molecule, the GI50 [46] was 2.81 µM (inactive), the GI50 [47] was 16.5 µM (inactive) and the GI50 [48] was 20.8 µM (inactive). The GI50 [49] was 26.4 µM (inactive), the GI50 [50] was 16.8 µM (inactive) and the GI50 [51] was 19.1 µM (inactive). The GI50 [52] was 23.7 µM (inactive), the GI50 [53] was 17.8 µM (inactive) and the GI50 [54] was 20.4 µM (inactive). The GI50 [55] was 19.4 µM (inactive), the GI50 [56] was 22.8 µM (inactive) and the GI50 [57] was 2.54 µM (inactive).

In the case of O=C1Nc2ccccc2/C1=C\c1c(Cl)[nH]c2ccccc12, the GI50 [1] is reported as 0.869 µM (active), the GI50 [2] is reported as 0.366 µM (active) and the GI50 [3] is reported as 24 µM (inactive). For the same molecule, the GI50 [4] was 0.397 µM (active), the GI50 [5] was 0.608 µM and the GI50 [6] was 1.11 µM (active). The GI50 [7] was 0.787 µM (active), the GI50 [8] was 2.85 µM (inactive) and the GI50 [9] was 0.736 µM (active). The GI50 [10] was 0.832 µM (active), the GI50 [11] was 0.24 µM (active) and the GI50 [12] was 0.631 µM (active). For the same molecule, the GI50 [13] was 0.288 µM (active), the GI50 [14] was 0.649 µM (active) and the GI50 [15] was 0.414 µM (active). For the same molecule, the GI50 [16] was 1.45 µM (inactive), the GI50 [17] was 0.48 µM (active) and the GI50 [18] was 2.42 µM (inactive). The GI50 [19] was 1.59 µM (inactive), the GI50 [58] was 0.537 µM (active) and the GI50 [20] was 0.516 µM (active). The GI50 [21] was 0.518 µM (active), the GI50 [22] was 1.35 µM (inactive) and the GI50 [23] was 1.44 µM (inactive). For the same molecule, the GI50 [24] was 0.287 µM (active), the GI50 [25] was 0.416 µM (active) and the GI50 [26] was 0.589 µM (active). The GI50 [27] was 0.358 µM (active), the GI50 [28] was 1.66 µM (inactive) and the GI50 [59] was 1.07 µM (active). The GI50 [29] was 0.592 µM (active), the GI50 [30] was 3.65 µM (inactive) and the GI50 [31] was 2.45 µM (inactive). The GI50 [32] was 0.873 µM (active), the GI50 [33] was 0.222 µM (active) and the GI50 [34] was 1.12 µM (active). For the same molecule, the GI50 [35] was 0.292 µM (active), the GI50 [36] was 3.35 µM (inactive) and the GI50 [37] was 0.745 µM (active). The GI50 [38] was 0.597 µM (active), the GI50 [39] was 0.299 µM (active) and the GI50 [40] was 0.364 µM (active). For the same molecule, the GI50 [42] was 0.139 µM (active), the GI50 [43] was 0.32 µM (active) and the GI50 [44] was 1.23 µM (inactive). For the same molecule, the GI50 [45] was 0.764 µM (active), the GI50 [46] was 0.251 µM (active) and the GI50 [48] was 1.15 µM (inactive). For the same molecule, the GI50 [49] was 0.409 µM (active), the GI50 [50] was 0.374 µM (active) and the GI50 [51] was 1.3 µM (inactive). For the same molecule, the GI50 [52] was 0.355 µM (active), the GI50 [53] was 0.935 µM (active) and the GI50 [54] was 1.05 µM (active). For the same molecule, the GI50 [55] was 0.208 µM (active), the GI50 [56] was 1.06 µM (active) and the GI50 [57] was 0.522 µM (active).

— ChEMBL document CHEMBL1201862, “PubChem BioAssay data set” (2004)
